Data from patent US20020026053A1, “Novel 3-(substituted) -2- indolinones compounds and use thereof as inhibitors of protein kinase activity” (priority 1997, published 2002).

Target: T1, EGFR (Homo sapiens, UniProt P00533)
T1 construct: endogenous in cells; host or cells: A431 cells (lysate, captured with SUMO1 anti-EGFR antibody)
Assay: Biochemical EGFR Assay
Parameters: concentration or dose not given beside the values
Conditions: protocol P.167
Summary of the method: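 Readout is ABTS absorbance at 410 nm after anti-phosphotyrosine and HRP-antibody detection of EGFR autophosphorylation. The kinase was immunocaptured from A431 lysate, exposed 30 min to test compound diluted 1:10 in TBS, then phosphorylated for 5 min with ATP/MnCl2 before an EDTA stop.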

T1 sequence (P00533 25-1210): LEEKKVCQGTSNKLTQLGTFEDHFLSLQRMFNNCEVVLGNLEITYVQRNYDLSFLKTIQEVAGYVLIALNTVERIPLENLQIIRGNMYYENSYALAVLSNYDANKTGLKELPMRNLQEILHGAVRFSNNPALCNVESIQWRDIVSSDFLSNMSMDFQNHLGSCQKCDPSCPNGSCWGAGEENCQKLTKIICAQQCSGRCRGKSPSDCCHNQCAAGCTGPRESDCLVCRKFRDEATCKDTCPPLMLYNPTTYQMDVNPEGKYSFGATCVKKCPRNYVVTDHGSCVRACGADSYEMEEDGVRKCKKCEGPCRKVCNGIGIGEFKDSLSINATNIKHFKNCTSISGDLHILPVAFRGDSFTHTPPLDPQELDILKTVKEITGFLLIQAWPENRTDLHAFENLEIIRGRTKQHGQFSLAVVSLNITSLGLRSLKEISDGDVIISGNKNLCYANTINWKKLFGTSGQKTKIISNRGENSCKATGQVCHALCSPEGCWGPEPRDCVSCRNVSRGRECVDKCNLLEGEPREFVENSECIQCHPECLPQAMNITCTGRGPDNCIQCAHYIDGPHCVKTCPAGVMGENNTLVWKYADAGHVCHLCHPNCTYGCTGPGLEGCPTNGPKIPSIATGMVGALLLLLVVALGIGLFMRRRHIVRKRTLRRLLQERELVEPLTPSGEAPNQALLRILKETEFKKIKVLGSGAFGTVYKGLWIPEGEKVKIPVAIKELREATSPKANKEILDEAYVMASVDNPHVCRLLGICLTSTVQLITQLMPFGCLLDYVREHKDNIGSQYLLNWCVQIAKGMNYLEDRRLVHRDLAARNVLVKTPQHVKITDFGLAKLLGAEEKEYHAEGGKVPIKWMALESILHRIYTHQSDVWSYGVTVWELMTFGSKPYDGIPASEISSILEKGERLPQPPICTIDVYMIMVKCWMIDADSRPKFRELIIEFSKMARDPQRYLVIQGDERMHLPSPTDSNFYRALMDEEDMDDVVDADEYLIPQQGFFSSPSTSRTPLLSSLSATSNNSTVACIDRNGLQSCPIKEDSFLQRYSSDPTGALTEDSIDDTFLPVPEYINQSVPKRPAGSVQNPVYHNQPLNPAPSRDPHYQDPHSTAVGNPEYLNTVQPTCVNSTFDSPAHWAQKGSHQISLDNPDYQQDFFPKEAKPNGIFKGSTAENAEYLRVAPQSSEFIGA

Structure (SMILES) | Biochem EGFR % Inhibition (P.167) [%]
COC1CCCN1C=C1C(=O)Nc2c(Br)cc(Br)cc21 (racemic) [10740/A04] | 5.2
COC1CCCN1C=C1C(=O)Nc2ccc(I)cc21 (racemic) [10740/B04] | 36.9
Cc1c(Br)cc(Br)c2c1C(=Cc1ccc(CO)o1)C(=O)N2 [10739/H11] | 49.9
O=C1Nc2c(Br)cc(Br)cc2C1=Cc1cnc2ccccc2c1 [10740/A02] | −2.4
O=C1Nc2c(Br)cc(Br)cc2C1=Cc1ccnc2ccccc12 [10740/A03] | 8.2
O=C1Nc2c(Br)cc(Br)cc2C1=Cc1ccsc1 [10740/A05] | 30.3
O=C1Nc2c(Br)cc(Br)cc2C1=Cc1ccc2ccccc2n1 [10740/A06] | 13.1
Cn1cc(C=C2C(=O)Nc3c(Br)cc(Br)cc32)c2ccccc21 [10740/A07] | 18.7
Cc1[nH]c2ccccc2c1C=C1C(=O)Nc2c(Br)cc(Br)cc21 [10740/A08] | −7.9
O=C1Nc2c(Br)cc(Br)cc2C1=Cc1cc(Br)cs1 [10740/A10] | 21.9
CCCCOc1ccc(C=C2C(=O)Nc3c(Br)cc(Br)cc32)cc1 [10740/A11] | 26.0
O=C1Nc2ccc(I)cc2C1=Cc1cnc2ccccc2c1 [10740/B02] | 46.1
O=C1Nc2ccc(I)cc2C1=Cc1ccnc2ccccc12 [10740/B03] | 40.1
O=C1Nc2ccc(I)cc2C1=Cc1ccsc1 [10740/B05] | 30.7
O=C1Nc2ccc(I)cc2C1=Cc1ccc2ccccc2n1 [10740/B06] | 44.4
Cn1cc(C=C2C(=O)Nc3ccc(I)cc32)c2ccccc21 [10740/B07] | 48.9
Cc1[nH]c2ccccc2c1C=C1C(=O)Nc2ccc(I)cc21 [10740/B08] | 34.8
O=C1Nc2ccc(I)cc2C1=Cc1cc(Br)cs1 [10740/B10] | 39.9
CCCCOc1ccc(C=C2C(=O)Nc3ccc(I)cc32)cc1 [10740/B11] | 48.1
Cc1c(Br)ccc2c1C(=Cc1cnc3ccccc3c1)C(=O)N2 [10740/C02] | 15.6
Cc1c(Br)ccc2c1C(=Cc1ccnc3ccccc13)C(=O)N2 [10740/C03] | 7.2
COC1CCCN1C=C1C(=O)Nc2ccc(Br)c(C)c21 (centres unmarked) [10740/C04] | 7.8
Cc1c(Br)ccc2c1C(=Cc1ccsc1)C(=O)N2 [10740/C05] | 3.5
Cc1c(Br)ccc2c1C(=Cc1ccc3ccccc3n1)C(=O)N2 [10740/C06] | 18.2
Cc1c(Br)ccc2c1C(=Cc1cn(C)c3ccccc13)C(=O)N2 [10740/C07] | 5.0
Cc1[nH]c2ccccc2c1C=C1C(=O)Nc2ccc(Br)c(C)c21 [10740/C08] | 10.7
Cc1c(Br)ccc2c1C(=Cc1cc(Br)cs1)C(=O)N2 [10740/C10] | 21.9

Structure (SMILES) | Biochem EGFR % Inhibition (P.167) [%]
CCCCOc1ccc(C=C2C(=O)Nc3ccc(Br)c(C)c32)cc1 [10740/C11] | 18.7
CNS(=O)(=O)c1ccc2c(c1)C(=Cc1cnc3ccccc3c1)C(=O)N2 [10740/D02] | 0.0
CNS(=O)(=O)c1ccc2c(c1)C(=Cc1ccnc3ccccc13)C(=O)N2 [10740/D03] | −6.9
CNS(=O)(=O)c1ccc2c(c1)C(=CN1CCCC1OC)C(=O)N2 (centres unmarked) [10740/D04] | −1.2
CNS(=O)(=O)c1ccc2c(c1)C(=Cc1ccsc1)C(=O)N2 [10740/D05] | 7.4
CNS(=O)(=O)c1ccc2c(c1)C(=Cc1ccc3ccccc3n1)C(=O)N2 [10740/D06] | 5.8
CNS(=O)(=O)c1ccc2c(c1)C(=Cc1cn(C)c3ccccc13)C(=O)N2 [10740/D07] | −3.0
CNS(=O)(=O)c1ccc2c(c1)C(=Cc1c(C)[nH]c3ccccc13)C(=O)N2 [10740/D08] | −5.7
CNS(=O)(=O)c1ccc2c(c1)C(=Cc1cc(Br)cs1)C(=O)N2 [10740/D10] | 9.9
CCCCOc1ccc(C=C2C(=O)Nc3ccc(S(=O)(=O)NC)cc32)cc1 [10740/D11] | 19.3
O=C1Nc2ccc(S(=O)(=O)Nc3ccc(C(F)(F)F)cc3)cc2C1=Cc1cnc2ccccc2c1 [10740/E02] | −7.7
O=C1Nc2ccc(S(=O)(=O)Nc3ccc(C(F)(F)F)cc3)cc2C1=Cc1ccnc2ccccc12 [10740/E03] | 24.6
COC1CCCN1C=C1C(=O)Nc2ccc(S(=O)(=O)Nc3ccc(C(F)(F)F)cc3)cc21 (centres unmarked) [10740/E04] | 12.3
O=C1Nc2ccc(S(=O)(=O)Nc3ccc(C(F)(F)F)cc3)cc2C1=Cc1ccsc1 [10740/E05] | 29.1
O=C1Nc2ccc(S(=O)(=O)Nc3ccc(C(F)(F)F)cc3)cc2C1=Cc1ccc2ccccc2n1 [10740/E06] | 0.0
Cn1cc(C=C2C(=O)Nc3ccc(S(=O)(=O)Nc4ccc(C(F)(F)F)cc4)cc32)c2ccccc21 [10740/E07] | 2.7
Cc1[nH]c2ccccc2c1C=C1C(=O)Nc2ccc(S(=O)(=O)Nc3ccc(C(F)(F)F)cc3)cc21 [10740/E08] | 3.1
O=C1Nc2ccc(S(=O)(=O)Nc3ccc(C(F)(F)F)cc3)cc2C1=Cc1cc(Br)cs1 [10740/E10] | 33.0
CCCCOc1ccc(C=C2C(=O)Nc3ccc(S(=O)(=O)Nc4ccc(C(F)(F)F)cc4)cc32)cc1 [10740/E11] | 8.8
O=C1Nc2ccc(S(=O)(=O)N3CCOCC3)cc2C1=Cc1cnc2ccccc2c1 [10740/F02] | 5.8
O=C1Nc2ccc(S(=O)(=O)N3CCOCC3)cc2C1=Cc1ccnc2ccccc12 [10740/F03] | 16.8
COC1CCCN1C=C1C(=O)Nc2ccc(S(=O)(=O)N3CCOCC3)cc21 (centres unmarked) [10740/F04] | 11.1
O=C1Nc2ccc(S(=O)(=O)N3CCOCC3)cc2C1=Cc1ccsc1 [10740/F05] | 14.8
O=C1Nc2ccc(S(=O)(=O)N3CCOCC3)cc2C1=Cc1ccc2ccccc2n1 [10740/F06] | 19.9
Cn1cc(C=C2C(=O)Nc3ccc(S(=O)(=O)N4CCOCC4)cc32)c2ccccc21 [10740/F07] | −4.2
Cc1[nH]c2ccccc2c1C=C1C(=O)Nc2ccc(S(=O)(=O)N3CCOCC3)cc21 [10740/F08] | 5.0
